Experimental data: PMC12723162, “Alphaherpesvirus pUL21 homologs use non-canonical sequences to compete with cellular adaptors for protein phosphatase 1 binding” (The Journal of Biological Chemistry, 2025)

Experiments:
[1] = target: T1, PP1γ catalytic domain : GADD34 peptide pre-formed complex (Mus musculus, UniProt P63087); experiment: Competition fluorescence anisotropy, displacement of FITC-GADD34 peptide from PP1γ (HEPES pH 8.0); assay type: binding; details: 2 nM fluorescent GADD34 peptide + 250 nM PP1γ; competitor at over 1000-fold molar excess; HEPES pH 8.0, 500 mM NaCl, 0.05% TWEEN-20; 27 °C
T1 construct: mouse PP1γ catalytic domain (residues 7–300)-H6; His6 (C); made in house; host or cells: E. coli T7 Express lysY/Iq (PP1γ); tracer peptide synthesised by GenScript
T1 sequence (P63087 7-300, one chain of several): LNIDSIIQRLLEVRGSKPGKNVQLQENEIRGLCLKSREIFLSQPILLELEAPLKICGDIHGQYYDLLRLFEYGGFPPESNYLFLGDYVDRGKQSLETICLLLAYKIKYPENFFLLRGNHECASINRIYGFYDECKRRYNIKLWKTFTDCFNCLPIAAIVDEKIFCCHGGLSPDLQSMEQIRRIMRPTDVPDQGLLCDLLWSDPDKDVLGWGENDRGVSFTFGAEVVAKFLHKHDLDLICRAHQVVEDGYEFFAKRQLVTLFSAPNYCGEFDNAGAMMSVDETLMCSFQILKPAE
Description: (§1) Bacterial expression plasmids encoding the mouse PP1γ catalytic domain (residues 7–300)-H6 and pUL21-H6, and mammalian expression vectors encoding pUL21(FV242AA)-GFP, pORF38-GFP and pORF38(FV255AA)-GFP, were described previously ([23]). We note that the mouse and human PP1γ catalytic domains share 100% amino acid identity. pORF38-NLT-H6 was generated by sub-cloning residues 1 to 263 of ORF38 into the vector pOPTnH ([52]). pUL21-RVxF-H6 was generated by inserting the mutations A237V and V239F into pUL21-H6 by QuikChange site-directed mutagenesis. Human PP1α was cloned from HeLa cell cDNA into a vector derived from pF5K (Promega) with an N-terminal Myc epitope tag via restriction-based cloning, and point mutations were introduced into Myc-PP1α by QuikChange mutagenesis. A plasmid encoding pUL21-GFP was generated by sub-cloning a codon-optimized synthetic UL21 gene (GeneArt) into pEGFP-N1 (Clontech), yielding an identical pUL21-GFP amino acid sequence as used in ([23]). pUL21-ΔL, -ΔR and -ΔLR were generated from this vector via inverse PCR, and point mutations were introduced via QuikChange mutagenesis.
Peptides were commercially synthesised to >95% purity (GenScript) as follows: GADD34 RVxF+ϕϕ[xF] […]
Proteins were expressed using E. coli T7 Express lysY/I^q cells (New England Biolabs) grown in 2 × TY medium at 37 °C to OD600 0.8 to 1.2 before cooling to 22 °C and induction of protein expression using 0.4 mM IPTG. […] Fractions were analysed by SDS-PAGE and those containing the desired protein were pooled, concentrated using centrifugal concentrators (Millipore) and stored at 4 °C (short-term) or snap-frozen in liquid nitrogen for long-term storage at −70 °C.
Fluorescence anisotropy was measured using a SpectraMax i3 microplate reader (Molecular Devices) with wavelengths 485 ± 20 nm (excitation) and 535 ± 25 nm (emission). Samples (100 μl per well) were dispensed into low-bind black half-area 96-well microtitre plates (Corning) and fluorescence anisotropy was recorded at 27 °C. […]

[2] = target: T2, PP1γ catalytic domain (7–300), C-terminally His6-tagged (Mus musculus, UniProt P63087); experiment: Isothermal titration calorimetry (ITC); assay type: binding; set-up: key to KD / ∆H / ∆G / -T∆S / N (sites): –: no binding detected; details: for KD: HEPES pH 8.0, 25 °C
T2 construct: mouse PP1γ catalytic domain (residues 7–300)-H6; made in house; host or cells: E. coli T7 Express lysY/Iq
T2 sequence (P63087 7-300): as the sequence (P63087 7-300, one chain of several) above
Description: as §1
Proteins were expressed using E. coli T7 Express lysY/I^q cells (New England Biolabs) grown in 2 × TY medium at 37 °C to OD600 0.8 to 1.2 before cooling to 22 °C and induction of protein expression using 0.4 mM IPTG. Cells were harvested at 16 to 20 h post-induction and pellets stored at −70 °C until required. Cells were resuspended in chilled lysis buffer (20 mM Tris pH 7.5, 20 mM imidazole, 500 mM NaCl, 1.4 mM β-mercaptoethanol 0.5 mM MgCl2 and 0.05% TWEEN-20 [plus 1 mM MnCl2 for PP1]) that was supplemented with 200 μl EDTA-free protease inhibitor cocktail (Merck) and 400 U bovine DNase I (Merck). Cells were lysed using a TS series cell disruptor (Constant Systems) at 24 kpsi and lysates were clarified (40,000×g, 30 min, 4 °C) before incubation with Ni-NTA agarose (Qiagen) for 1 h at 4 °C. The resin was washed with ≥20 column volumes of wash buffer (20 mM Tris, 20 mM imidazole and 500 mM NaCl [plus 1 mM MnCl2 for PP1]) at pH 7.5 (PP1γ and pORF38-NLT) or pH 8.5 (pUL21 and pUL21-RVxF). Protein was eluted using wash buffer supplemented with additional imidazole (final concentration 250 mM) and proteins were subjected to size-exclusions chromatography using HiLoad 16/600 Superdex 75 (PP1) or Superdex 200 (other) columns equilibrated in 20 mM Tris pH 8.5, 500 mM NaCl, 1 mM DTT (for pUL21 and pUL21-RVxF) or 50 mM HEPES pH 8.0, 500 mM NaCl, 0.5 mM TCEP (for PP1 and pORF38-NLT). Fractions were analysed by SDS-PAGE and those containing the desired protein were pooled, concentrated using centrifugal concentrators (Millipore) and stored at 4 °C (short-term) or snap-frozen in liquid nitrogen for long-term storage at −70 °C.
ITC experiments were performed using a MicroCal PEAQ-ITC automated calorimeter (Malvern Panalytical). The solvent (ITC buffer) was 50 mM HEPES pH 8.0, 500 mM NaCl, 0.5 mM TCEP. Lyophilized peptides were dissolved into ITC buffer and their concentration was estimated from dry mass. Proteins were diluted in ITC buffer, and their concentration was estimated from the theoretical extinction coefficient at 280 nm ([53]). […] Data were analyzed using MicroCal PEAQ-ITC analysis software (Malvern Panalytical) and fitted using a one-site binding model.
Table S1. Isothermal titration calorimetry (ITC) of PP1 with TROPPO-containing peptides and proteins. Data for independent experiments are shown. For all, the cell contained C-terminally His6-tagged mouse PP1γ (7–300). –, no binding detected.

[3] = tested on: pUL21-GFP; experiment: Co-IP of Myc-PP1 with pUL21-GFP; assay type: binding, HSV-1; details: for Co-IP of Myc-PP1 by pUL21-GFP: HEK 293T cells co-transfected, 24 h, immunoblot, versus WT Myc-PP1; for Abundance of Myc-PP1 in cell lysates: HEK 293T lysates used for IP; for Abundance of Myc-PP1 in cell lysates / Bound:input ratio of Myc-PP1 (effect of mutation): versus WT; for Bound:input ratio of Myc-PP1 (effect of mutation): densitometry, HEK 293T, ∗∗∗p < 0.001
Description: as §1
(§2) Mycoplasma-free human embryonic kidney 293T (HEK 293T) cells (American Type Culture Collection #CRL-3216) were maintained in Dulbecco’s modified Eagle’s medium (DMEM) with high glucose (Merck), supplemented with 10% (v/v) heat-inactivated fetal calf serum and 2 mM L-glutamine (complete DMEM) in a humidified 5% CO2 atmosphere at 37 °C. The identity of the cell line was not independently confirmed.
(§3) Monolayers of HEK 293T cells were transfected with 7.7 μg of DNA per 9 cm dish, using 18 μg/ml 25 kDa branched polyethylenimine (Merck) or using TransIt-LT1 (Mirus) in accordance with the manufacturer’s instructions. Cells were harvested 24 h post-transfection and incubated for 30 min in ice-cold 10 mM Tris pH 7.5, 150 mM NaCl, 0.5 mM EDTA, 0.5% Igepal CA-630 (a.k.a. NP-40), 1% (v/v) EDTA-free protease inhibitor cocktail (Merck) before clarification at 21,000×g for 10 min at 4 °C. Lysate protein concentrations were measured using the bicinchoninic acid (BCA) assay (Pierce) and normalized before affinity capture using GFP-Trap resin (ChromoTek) following the manufacturer’s protocol. Samples were eluted by heating the resin to 95 °C for 5 min in 45 μl 2 × SDS-PAGE loading buffer. Proteins were separated by SDS-PAGE and transferred to 0.45 μm nitrocellulose membranes (PerkinElmer or Cytiva). Membranes were stained with Ponceau S and imaged using a G:Box XX9 (Syngene) before blocking in Tris-buffered saline with 0.1% TWEEN-20 (TBS-T) supplemented with 5% (w/v) non-fat milk powder. Immunoblotting was performed using antibodies diluted in blocking buffer as listed below, and immunoblots were imaged using an Odyssey CLx (LI-COR Biosciences). Densitometry was performed using Image Studio Lite version 5.2 (LI-COR Biosciences), and statistical tests were performed using Prism version 7 (GraphPad).
(§4) The following primary antibodies and dilutions were used for immunoblotting: rabbit anti-CERT 1:10,000 (Abcam #Ab72536), mouse anti-PP1α 1:1000 (Santa Cruz #sc-271762), mouse anti-Myc 1:4000 (Millipore #05–724), rat anti-tubulin (clone YL1/2) hybridoma supernatant 1:40 ([54]). The anti-CERT antibody was validated using a knock-out cell line. The anti-PP1α antibody has been validated by siRNA knockdown ([55]). The anti-Myc antibody was validated using control experiments lacking Myc-tagged transfected constructs ([56]). The anti-tubulin antibody has been validated by immunofluorescence microscopy, immuno-electron microscopy and radiolabeled immunosorbent assay ([54]). Secondary antibodies from LI-COR Biosciences were diluted 1:10,000 as follows: IRDye 680RD goat anti-rat (#926–68029) and goat anti-mouse (#926–68020), or IRDye 800CW goat anti-rabbit (#926–32221).

[4] = tested on: PP1 regulatory protein; details: cited from earlier work
Description: HEK 293T cells were co-transfected with pUL21-GFP and WT or mutant Myc-PP1, and lysates were subjected to GFP affinity capture before SDS-PAGE and immunoblott ...

[5] = tested on: endogenous PP1α; experiment: GFP affinity capture / co-IP of endogenous PP1α with GFP-tagged bait; assay type: binding, human; details: HEK 293T cells, 24 h post-transfection, GFP-Trap, immunoblot; representative of two independent experiments
Description: as §1, §2, §3, §4

[6] = TROPPO peptide, independent experiment 3, syringe/cell µM: pORF38 500/16.0
[7] = TROPPO peptides, independent experiment 1, syringe/cell µM: pUL21 1000/58.8, pORF38 1000/79.6
[8] = TROPPO peptides, independent experiment 2, syringe/cell µM: pUL21 1000/54.5, pORF38 500/17.0

KSDHITLSNFVQIRTIPR [pORF38 TROPPO, pORF38 TROPPO peptide (residues 246–263)]
Displacement of GADD34 peptide from PP1 by TROPPO peptides [1]: Neither TROPPO-containing peptide was able to displace the GADD34 peptide
ITC heats of TROPPO peptides against PP1 catalytic domain ([2]; 500–1000 μM peptide titrated, 50 mM HEPES pH 8.0, 500 mM NaCl, 0.5 mM TCEP, 25 °C): did not evolve heats above background levels
-T∆S [2, 6]: –
N (sites) [2, 6]: –
∆G [2, 6]: –
∆H [2, 6]: –
KD [2, 6]: –
-T∆S [2, 7]: –
N (sites) [2, 7]: –
∆G [2, 7]: –
∆H [2, 7]: –
KD [2, 7]: –
-T∆S [2, 8]: –
N (sites) [2, 8]: –
∆G [2, 8]: –
∆H [2, 8]: –
KD [2, 8]: –

F257A
Co-IP of Myc-PP1 by pUL21-GFP [3]: profoundly less efficient than for WT Myc-PP1
Abundance of Myc-PP1 in cell lysates [3]: lower abundance of these mutants in the cell lysates
Bound:input ratio of Myc-PP1 (effect of mutation) [3]: significantly disrupt binding to pUL21-GFP
PP1 regulatory protein binding [4]: severely decrease PP1 regulatory protein binding

L289R
Co-IP of Myc-PP1 by pUL21-GFP [3]: profoundly less efficient than for WT Myc-PP1
Abundance of Myc-PP1 in cell lysates [3]: lower abundance of these mutants in the cell lysates
Bound:input ratio of Myc-PP1 (effect of mutation) [3]: significantly disrupt binding to pUL21-GFP
PP1 regulatory protein binding [4]: severely decrease PP1 regulatory protein binding

C291R
Co-IP of Myc-PP1 by pUL21-GFP [3]: profoundly less efficient than for WT Myc-PP1
Abundance of Myc-PP1 in cell lysates [3]: lower abundance of these mutants in the cell lysates
Bound:input ratio of Myc-PP1 (effect of mutation) [3]: significantly disrupt binding to pUL21-GFP
PP1 regulatory protein binding [4]: severely decrease PP1 regulatory protein binding

B1: V239F (protein)
chain: MELSYATTMHYRDVVFYVTTDRNRAYFVCGGCVYSVGRPCASQPGEIAKFGLVVRGTGPDDRVVANYVRSELRQRGLQDVRPIGEDEVFLDSVCLLNPNVSSELDVINTNDVEVLDECLAEYCTSLRTSPGVLISGLRVRAQDRIIELFEHPTIVNVSSHFVYTPSPYVFALAQAHLPRLPSSLEALVSGLFDGIPAPRQPLDAHNPRTDVVITGRRAPRPIAGSGAGSGGAGAKRATFSEFVQVKHIDRVGPAGVSPAPPPNNTDSSSLVPGAQDSAPPGPTLRELWWVFYAADRALEEPRADSGLTREEVRAVRGFREQAWKLFGSAGAPRAFIGAALGLSPLQKLAVYYYIIHRERRLSPFPALVRLVGRYTQRHGLYVPRPDDPVLADAINGLFRDALAAGTTAEQLLMFDLLPPKDVPVGSDVQADSTALLRFIESQRLAVPGGVISPEHVAYLGAFLSVLYAGRGRMSAATHTARLTGVTSLVLAVGDVDRLSAFDRGAAGAASRTRAAGYLDVLLTVRLARSQHGQSV
modifications: left off: GFP (from the vector pEGFP-N1), end not stated, kept
Co-IP of endogenous PP1α [5]: co-precipitated more PP1α than did WT pUL21-GFP
